Reference: paper PMC5483439, “The Effect of Pungent and Tingling Compounds from Piper nigrum L. on Background K^+ Currents” (Frontiers in Pharmacology, 2017)

How the values were obtained:
mKCNK9 = biological target: T1, mKCNK9 (Mus musculus, UniProt Q3LS21); test: Two-electrode voltage clamp on Xenopus oocytes expressing mKCNK9; assay type: cell-based; details: 1–1000 μM
T1 construct: expressed in transfected cells; host or cells: Xenopus laevis oocytes injected with cRNA (subcloned into pSGEM; clone from Dr. D. Bayliss)
From the text: Human KCNK3 (TASK-1, K2P3.1) cloned into the expression vector pIRES-CD8 was a gift from Dr. Fabrice Duprat (Institut National de la Santé et de la Recherche Médicale, Antipolis, France). Human KCNK18 (hTRESK, K2P18.1), cloned into the plasmid pEXO, was a gift from Dr. P. Enyedi (Semmelweis University, Budapest, Hungary). These plasmids were linearized with the restriction enzymes BamHI and XbaI, respectively, and then used as templates for in vitro transcription. Human KCNK9 (hTASK-3, K2P9.1) cloned into the expression vector pCR4-TOPO, was purchased from Imagenes (Berlin, Germany). The plasmid was linearized with the restriction enzyme SspI, to generate a linear cDNA template for in vitro transcription. mKCNK3 was isolated from mouse heart by standard procedures and inserted into pSGEM. mKCNK9 and mKCNK18 were kindly provided by Dr. D. Bayliss (University of Virginia, Charlottesville, VA, United States) and Prof. Dr. P. Enyedi (Semmelweis University, Budapest, Hungary). Both channels were subcloned into pSGEM. The pSGEM plasmids were subsequently linearized with the restriction enzyme PacI. The capped RNAs were synthesized in the presence of the capping analog m7G(5′)ppp(5′)G using the AmpliCap-T7 Message Maker kit (Epicentre, Madison, WI, United States). The cRNA was dissolved in nuclease-free water to obtain a final concentration of 100 ng/μL. […]

tongue surface = tested on: tongue surface; design: method as in Dawid et al., 2012; details: human, filter paper on tongue; ref Dawid et al., 2012; cited from earlier work

T1 sequence (Q3LS21 whole entry): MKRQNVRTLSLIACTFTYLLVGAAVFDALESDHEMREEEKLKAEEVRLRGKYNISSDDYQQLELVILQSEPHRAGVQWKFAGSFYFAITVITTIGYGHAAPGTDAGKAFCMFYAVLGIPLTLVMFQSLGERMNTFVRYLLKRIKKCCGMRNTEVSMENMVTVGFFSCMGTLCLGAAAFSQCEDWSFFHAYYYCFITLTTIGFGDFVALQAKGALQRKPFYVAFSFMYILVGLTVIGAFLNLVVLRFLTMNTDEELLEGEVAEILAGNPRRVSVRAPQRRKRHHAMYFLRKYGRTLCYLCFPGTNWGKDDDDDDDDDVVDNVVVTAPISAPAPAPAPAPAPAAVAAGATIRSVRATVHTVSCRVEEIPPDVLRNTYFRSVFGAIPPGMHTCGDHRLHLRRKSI

IC50 (mKCNK9): 214 ± 60.1 µM
Compound: O=C(/C=C/C=C/c1ccc2c(c1)OCO2)N1CCCCC1 [1a, piperine]
pungent threshold concentration (tongue surface): 3.0 nmol/cm^2
